Data from patent US12503436B2, “Compounds and compositions for treating conditions associated with STING activity” (NOVARTIS PHARMA AG, priority 2021, dated 2025).

target: STING (Homo sapiens, UniProt Q86WV6, G230A/H232R/R293Q/R71H); assay: STING reporter assay in THP1-Dual KO-IFNAR2 cells (2′3′cGAMP stimulation, luciferase reporter); type: cell-based; conditions: 15 μM 2′3′cGAMP stimulation, 24 h, read-out: Pharmaron, THP1_IFNAR2 STING 24 h Luci Normalized: GeoMean EC50
Method in brief: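 THP1-Dual KO-IFNAR2 cells (2×10E6 cells/mL) with compounds at 0.0017-100 μM final, stimulated with 15 μM final 2′3′cGAMP delivered by Lipofectamine 2000; 24 h at 37 °C. Luciferase in supernatant read with QUANTI-Luc Plus; EC50 derived from luminescence.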

STING, sequence (Q86WV6 whole entry R71H/G230A/H232R/R293Q): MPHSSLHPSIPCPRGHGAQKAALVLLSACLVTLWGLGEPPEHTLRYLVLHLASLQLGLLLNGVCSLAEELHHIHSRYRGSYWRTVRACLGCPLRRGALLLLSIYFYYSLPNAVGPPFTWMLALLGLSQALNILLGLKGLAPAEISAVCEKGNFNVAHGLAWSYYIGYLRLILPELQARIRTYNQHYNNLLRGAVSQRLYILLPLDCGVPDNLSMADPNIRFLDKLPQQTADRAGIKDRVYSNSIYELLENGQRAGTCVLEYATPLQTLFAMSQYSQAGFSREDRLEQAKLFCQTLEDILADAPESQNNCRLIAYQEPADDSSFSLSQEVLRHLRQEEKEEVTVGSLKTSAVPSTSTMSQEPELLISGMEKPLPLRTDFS

Question: How did the EC50 turn out when `CC1(F)CC(C(=O)Nc2c[nH]c3ccc(OCC[C@@H]4C[C@@H]5CN(CC(F)(F)F)C[C@@H]5C4)cc23)C1` (stereo partly drawn) [Compound 151, 3-fluoro-3-methyl-N-(5-(2-((3aR,5r,6aS)-2-(2,2,2-trifluoroethyl)octahydrocyclopenta[c]pyrrol-5-yl)ethoxy)-1H-indol-3-yl)cyclobutane-1-carboxamide] was run?
Answer: 200 to 1000 nM

Question: `CCO/C=C/c1ccc2[nH]cc(NC(=O)C3CCC3)c2c1` [Compound 143, (E)-N-(5-(2-ethoxyvinyl)-1H-indol-3-yl)cyclobutanecarboxamide] was tested. Which EC50 did it give?
Answer: 1000 to 5000 nM

Question: `CC(=O)Nc1c[nH]c2ccc(COCc3ccc(C(F)(F)F)cc3)cc12` [Compound 111, N-(5-(((4-(trifluoromethyl)benzyl)oxy)methyl)-1H-indol-3-yl)acetamide] was tested. Which EC50 did it give?
Answer: 40 to 200 nM

Question: For `N#CC1CCC1C(=O)Nc1c[nH]c2ccc(OCC[C@@H]3C[C@@H]4CN(CC(F)(F)F)C[C@@H]4C3)cc12` (stereo partly drawn) [Compound 304, 2-cyano-N-(5-(2-((3aR,5r,6aS)-2-(2,2,2-trifluoroethyl)octahydrocyclopenta[c]pyrrol-5-yl)ethoxy)-1H-indol-3-yl)cyclobutane-1-carboxamide], which EC50 is on record?
Answer: 200 to 1000 nM

Question: With `CC(=O)Nc1c[nH]c2ccc(CCOc3ccc4ncccc4c3)cc12` [Compound 526, N-(5-(2-(quinolin-6-yloxy)ethyl)-1H-indol-3-yl)acetamide] as the molecule, how does the EC50 read?
Answer: 5000 to 100000 nM

Question: For `CC1(C(=O)Nc2c[nH]c3ccc(CCCc4ccc(C(F)(F)F)cn4)cc23)CC1` [Compound 464, 1-methyl-N-(5-(3-(5-(trifluoromethyl)pyridin-2-yl)propyl)-1H-indol-3-yl)cyclopropane-1-carboxamide], which EC50 is on record?
Answer: 200 to 1000 nM

Question: For `O=C(Nc1c[nH]c2ccc(OCCc3cnc(N4CCC(F)(F)CC4)c(F)c3)cc12)C1CC1` [Compound 183, N-(5-(2-(6-(4,4-difluoropiperidin-1-yl)-5-fluoropyridin-3-yl)ethoxy)-1H-indol-3-yl)cyclopropanecarboxamide], which EC50 is on record?
Answer: 200 to 1000 nM

Question: Which EC50 does the source give for `CC1(C(=O)Nc2c[nH]c3ccc(OCc4ccc(C(F)(F)F)cc4)cc23)CCCO1` (centres unmarked) [Compound 325, 2-methyl-N-(5-((4-(trifluoromethyl)benzyl)oxy)-1H-indol-3-yl)tetrahydrofuran-2-carboxamide] here?
Answer: 200 to 1000 nM

Question: For `CC1(C(=O)Nc2c[nH]c3ccc(OCc4ccc(C(F)(F)F)cc4)cc23)CCNCC1` [Compound 528, 4-methyl-N-(5-((4-(trifluoromethyl)benzyl)oxy)-1H-indol-3-yl)piperidine-4-carboxamide], which EC50 is on record?
Answer: 5000 to 100000 nM

Question: How did the EC50 turn out when `CO[C@H]1C[C@H](C(=O)Nc2c[nH]c3ccc(O[C@H]4C[C@H](c5ccc(C(F)(F)F)cc5)C4)cc23)C1` [Compound 242, trans-3-methoxy-N-(5-(trans-3-(4-(trifluoromethyl)phenyl)cyclobutoxy)-1H-indol-3-yl)cyclobutane-1-carboxamide] was run?
Answer: 40 to 200 nM

Question: With `CO[C@H]1C[C@](C)(C(=O)Nc2c[nH]c3ccc(OCC[C@@H]4C[C@@H]5CN(CC(F)(F)F)C[C@@H]5C4)cc23)C1` [Compound 427, trans-3-methoxy-1-methyl-N-(5-(2-((3aR,5r,6aS)-2-(2,2,2-trifluoroethyl)octahydrocyclopenta[c]pyrrol-5-yl)ethoxy)-1H-indol-3-yl)cyclobutane-1-carboxamide] as the molecule, how does the EC50 read?
Answer: 200 to 1000 nM

Question: `CC(=O)Nc1c[nH]c2ccc(CCOc3ccc(Cl)cc3)cc12` [Compound 229, N-(5-(2-(4-chlorophenoxy)ethyl)-1H-indol-3-yl)acetamide] was tested. Which EC50 did it give?
Answer: 200 to 1000 nM

Question: With `CC(=O)Nc1c[nH]c2ccc(COCc3ccc(Cl)c(Cl)c3)cc12` [Compound 101, N-(5-(((3,4-dichlorobenzyl)oxy)methyl)-1H-indol-3-yl)acetamide] as the molecule, how does the EC50 read?
Answer: 200 to 1000 nM

Question: For `O=C(Nc1c[nH]c2ccc(OCCc3ccc(C(F)(F)F)cc3)cc12)C1CC(F)C1` (centres unmarked) [Compound 207, 3-fluoro-N-(5-(4-(trifluoromethyl)phenethoxy)-1H-indol-3-yl)cyclobutane-1-carboxamide], which EC50 is on record?
Answer: 40 to 200 nM

Question: For `CC(=O)Nc1c[nH]c2ccc(CCOc3ccc(C4CCC(F)(F)CC4)cc3)cc12` [Compound 224, N-(5-(2-(4-(4,4-difluorocyclohexyl)phenoxy)ethyl)-1H-indol-3-yl)acetamide], which EC50 is on record?
Answer: 40 to 200 nM

Question: `CC(=O)Nc1c[nH]c2ccc(CCOc3ccc4ccncc4c3)cc12` [Compound 449, N-{5-[2-(isoquinolin-7-yloxy)ethyl]-1H-indol-3-yl}acetamide] was tested. Which EC50 did it give?
Answer: 1000 to 5000 nM

Question: `O=C(Nc1c[nH]c2ccc(CCCn3cc(C(F)(F)F)cn3)cc12)C1CC1` [Compound 384, N-(5-(3-(4-(trifluoromethyl)-1H-pyrazol-1-yl)propyl)-1H-indol-3-yl)cyclopropanecarboxamide] was tested. Which EC50 did it give?
Answer: 200 to 1000 nM

Question: For `O=C(Nc1c[nH]c2ccc(O[C@H]3C[C@@H](c4ccc(C(F)(F)F)cc4)C3)cc12)C1(C(F)(F)F)CC1` [Compound 353, 1-(trifluoromethyl)-N-(5-(cis-3-(4-(trifluoromethyl)phenyl)cyclobutoxy)-1H-indol-3-yl)cyclopropane-1-carboxamide], which EC50 is on record?
Answer: 200 to 1000 nM

Question: `CC1(C(=O)Nc2c[nH]c3ccc(O[C@H]4C[C@H](c5ccc(C(F)(F)F)cc5)C4)cc23)CN(CC(F)F)C1` [Compound 483, 1-(2,2-difluoroethyl)-3-methyl-N-(5-(trans-3-(4-(trifluoromethyl)phenyl)cyclobutoxy)-1H-indol-3-yl)azetidine-3-carboxamide] was tested. Which EC50 did it give?
Answer: 40 to 200 nM

Question: With `COCCN1CC(C(=O)Nc2c[nH]c3ccc(OCCc4ccc(C(F)(F)F)cc4)cc23)C1` [Compound 298, 1-(2-methoxyethyl)-N-(5-(4-(trifluoromethyl)phenethoxy)-1H-indol-3-yl)azetidine-3-carboxamide] as the molecule, how does the EC50 read?
Answer: 200 to 1000 nM

Question: Which EC50 does the source give for `O=C(Nc1c[nH]c2ccc(O[C@H]3C[C@@H](c4ccc(C(F)(F)F)nc4)C3)cc12)[C@H]1C[C@H](CO)C1` [Compound 551, trans-3-(hydroxymethyl)-N-(5-(cis-3-(6-(trifluoromethyl)pyridin-3-yl)cyclobutoxy)-1H-indol-3-yl)cyclobutane-1-carboxamide] here?
Answer: 200 to 1000 nM

Question: Which EC50 does the source give for `CC(=O)Nc1c[nH]c2ccc(CCNc3ccc(C(F)(F)F)cn3)cc12` [Compound 199, N-(5-(2-((5-(trifluoromethyl)pyridin-2-yl)amino)ethyl)-1H-indol-3-yl)acetamide] here?
Answer: 1000 to 5000 nM

Question: `C[C@]1(C(=O)Nc2c[nH]c3ccc(OCCc4ccc(C(F)(F)F)cc4)cc23)C[C@@H](O)C1` [Compound 445, (cis)-3-hydroxy-1-methyl-N-(5-(4-(trifluoromethyl)phenethoxy)-1H-indol-3-yl)cyclobutane-1-carboxamide] was tested. Which EC50 did it give?
Answer: 40 to 200 nM

Question: `CC(=O)Nc1c[nH]c2ccc(OCC[C@@H]3C[C@@H]4CN(C)C[C@@H]4C3)cc12` [Compound 292, N-(5-(2-((3aR,5r,6aS)-2-methyloctahydrocyclopenta[c]pyrrol-5-yl)ethoxy)-1H-indol-3-yl)acetamide] was tested. Which EC50 did it give?
Answer: 5000 to 100000 nM

Question: `C[C@H]1C[C@H](C(=O)Nc2c[nH]c3ccc(OCc4ccc(C(F)(F)F)cc4)cc23)C1` [Compound 320, trans-3-methyl-N-(5-((4-(trifluoromethyl)benzyl)oxy)-1H-indol-3-yl)cyclobutane-1-carboxamide] was tested. Which EC50 did it give?
Answer: 200 to 1000 nM

Question: With `O=C(Nc1c[nH]c2ccc(O[C@H]3C[C@@H](c4ccc(C(F)(F)F)cc4)C3)cc12)C1CN(CC(F)(F)F)C1` [Compound 243, 1-(2,2,2-trifluoroethyl)-N-(5-(cis-3-(4-(trifluoromethyl)phenyl)cyclobutoxy)-1H-indol-3-yl)azetidine-3-carboxamide] as the molecule, how does the EC50 read?
Answer: 40 to 200 nM
